Series [1] can be described thus: Reduction of methanethiol (MeSH) in headspace, phosphate buffer pH 7, GC. As to conditions: for reactivity towards MeSH / ability to bind MeSH (in words): aqueous environment; for % reduction of MeSH in the headspace: MeSH 100 μM, phosphate buffer pH 7, 1 h. As for the experimental part: (§1) The compounds listed in Table 1 are dissolved to a final concentration of 100 μM, 200 μM and 500 μM in 1 ml of phosphate buffer at pH 7 in a closed GC-headspace vial. MeSH is added to a final concentration of 100 μM and the mixture is equilibrated for 1 h. Samples are heated to 75° C. and 1 ml of the headspace above the reaction mixture is injected onto a column suitable for separation of sulphur compounds (SPW1-sulfur, Supelco). The temperature program is set to 1 min initial temperature at 50° C., heating at a rate of 10° C./min to 100° C. and further heating at 20° C./min to 200° C. The headspace level of MeSH is compared to a blank sample, i.e. a sample without the active compound.

The nature of series [2]: Reduction of allyl mercaptan, monobromobimane fluorescence. As to conditions: 200 μM allyl mercaptan-solution, pH 7, 15 min. As for the experimental part:
The compounds given in Table 2 are dissolved in DMSO to a final concentration of 100 mM and serially diluted in the same solvent. Aliquots of the solutions of different active compounds (2.5 μl) are distributed to individual wells of a microtiter plate. 100 μl of a 200 μM allyl mercaptan-solution (in 50 mM phosphate buffer, pH 7) are added to each well and the plates are immediately sealed. After 15 min of incubation, the unreacted allyl mercaptan is derivatised by adding to each well of the microtiter plate 100 μl of a monobromobimane (obtained from Fluka, Buchs, Switzerland) stock solution (0.5 mM in 1 M NaCO3, pH 8.8). After 10 min the fluorescence in the wells of the microtiter plates is measured on a Flex-station (Molecular devices, Sunnyvale, Calif., USA) with an excitation wavelength of 385 nm and an emission wavelength of 480 nm. After the fluorescence determination, from all the wells the blank value containing only buffer and DMSO is subtracted. The fluorescence of control wells with allyl mercaptan and DMSO only is then compared to the fluorescence in wells containing potential allyl mercaptan trapping agents (compound 1 to 5) to calculate the inhibition in percent.

Series [3] in a line: Reduction of methanethiol (MeSH) in saliva, headspace GC. As to conditions: compound 500 μM, MeSH 200 μM. On the procedure:
as §1
The compounds given in Table 3 are dissolved in GC-headspace vials in saliva donations pooled form four donors at a concentration of 500 μM. After a conditioning period of 1 and 2.5 h respectively, MeSH is added at a concentration of 200 μM, and 1 hour later MeSH level in the headspace is determined as described in Example 8.

For series [4] the following is noted: 500 μM, pH 7.
Procedure: Samples of 0.50 ml are withdrawn at the indicated time intervals and extracted with MTBE (0.50 ml). The amount of released ethyl vanillin is determined by quantitative GC-analysis.
Where [5] appears, read: after 2½ h conditioning in pooled saliva.
The mark [6] stands for this setting: after 1 h conditioning in pooled saliva.

SMILES strings stand for the structures. Structures can show the parent of a compound that is named as a salt. Where two headings read alike, the source gives them in different places.

In the case of `CC1CCC(C(C)C)C(OC(=O)/C=C/C(=O)O)C1` (stereo not shown) [B, reference compound], the “reactivity towards MeSH / ability to bind MeSH (in words)” value in series [1] is reported as “low reactivity”. Also, the “% reduction of MeSH in the headspace” value in series [1] (compound 100 μM) is given as 11.9%; in series [1] (compound 200 μM) it was 1.7%; in series [1] (compound 500 μM) it was 0%.
Take `CC1CCC(C(C)C)C(OC(=O)/C=C/C(=O)OCC(O)CO)C1` (stereo not shown) [Compound 1, 2,3-Dihydroxypropyl 2-isopropyl-5-methylcyclohexyl fumarate]: the “% reduction of MeSH in the headspace” value in series [1] (compound 100 μM) is given as 81.5%; in series [1] (compound 200 μM), 73.7%; in series [1] (compound 500 μM), more than 90%. The “% reduction of allyl mercaptan” value in series [2] (test concentration 31.25 μM) was determined as 0.1%; in series [2] (test concentration 62.5 μM), 9.9%; in series [2] (test concentration 125 μM) it was 22.5%; in series [2] (test concentration 250 μM), 43.2%; in series [2] (test concentration 500 μM), 68.8%; in series [2] (test concentration 1000 μM) it was 86.0%. The results for the “Reduction of MeSH (%)” value in series [3] (setting [5]) and in series [3] (setting [6]) were 40.5% and 72.7%, respectively.
For `CCOC(=O)/C=C/C(=O)Oc1c(C)occc1=O` [Compound 2, Ethyl 2-methyl-4-oxo-4H-pyran-3-yl fumarate], the “% reduction of MeSH in the headspace” value is more than 92% in series [1] (compound 100 μM), more than 92% in series [1] (compound 200 μM) and more than 90% in series [1] (compound 500 μM). Moreover, the “% reduction of allyl mercaptan” value in series [2] (test concentration 31.25 μM) stood at 11.1%; in series [2] (test concentration 62.5 μM), 31.9%; in series [2] (test concentration 125 μM) it was 65.3%; in series [2] (test concentration 250 μM), 98.4%; in series [2] (test concentration 500 μM), 100.0%; in series [2] (test concentration 1000 μM) it was 100.0%. The results for the “Reduction of MeSH (%)” value in series [3] (setting [5]) and in series [3] (setting [6]) were 32.5% and 75.9%, respectively.
Regarding `CCOC(=O)/C=C/C(=O)Oc1ccc(C=O)cc1OCC` [Compound 3, 2-Ethoxy-4-formylphenyl ethyl fumarate], the “% reduction of MeSH in the headspace” value in series [1] (compound 100 μM) is more than 90%; in series [1] (compound 200 μM), more than 92%; in series [1] (compound 500 μM), more than 90%. In addition, the “% reduction of allyl mercaptan” value in series [2] (test concentration 31.25 μM) was determined as 12.8%; in series [2] (test concentration 62.5 μM), 32.7%; in series [2] (test concentration 125 μM) it was 74.5%; in series [2] (test concentration 250 μM), 99.8%; in series [2] (test concentration 500 μM), 100.0%; in series [2] (test concentration 1000 μM), 100.0%. Further, the “Reduction of MeSH (%)” value in series [3] (setting [5]) came out at 73.3%; in series [3] (setting [6]), 36.2%. Moreover, the figures for the “% of theory (released ethyl vanillin)” value in series [4] (30 min), in series [4] (60 min) and in series [4] (120 min) were 38%, 47% and 62%, respectively. In addition, the “conc. of released ethy vanillin” value was determined as 192 µM in series [4] (30 min), 235 µM in series [4] (60 min) and 310 µM in series [4] (120 min).
On to `CCOC(=O)/C=C/C(=O)Oc1ccccc1C(=O)OC` [Compound 4, Methyl 2-((E)-3-(ethoxycarbonyl)acryloyloxy)benzoate], for which the “% reduction of MeSH in the headspace” value in series [1] (compound 100 μM) was more than 90%; in series [1] (compound 200 μM) it was more than 92%; in series [1] (compound 500 μM) it was more than 90%. For the same compound, the “% reduction of allyl mercaptan” value in series [2] (test concentration 31.25 μM) is 14.4%; in series [2] (test concentration 62.5 μM), 32.3%; in series [2] (test concentration 125 μM) it was 67.6%; in series [2] (test concentration 250 μM), 95.3%; in series [2] (test concentration 500 μM), 99.8%; in series [2] (test concentration 1000 μM), 100.0%. Also, the figures for the “Reduction of MeSH (%)” value in series [3] (setting [5]) and in series [3] (setting [6]) were 74.3% and 28.1%, respectively.
In the case of `CC1CCC(C(C)C)C(OC(=O)/C=C/C(=O)OCC(O)C(O)C(O)C(O)CO)C1` (stereo not shown) [Compound 5, 2,3,4,5,6-Pentahydroxyhexyl 2-isopropyl-5-methylcyclohexyl fumarate], the “% reduction of MeSH in the headspace” value in series [1] (compound 100 μM) is 71.6%; in series [1] (compound 500 μM), more than 90%. In addition, the “% reduction of allyl mercaptan” value in series [2] (test concentration 31.25 μM) amounted to 1.0%; in series [2] (test concentration 62.5 μM), 8.1%; in series [2] (test concentration 125 μM), 19.3%; in series [2] (test concentration 250 μM) it was 38.4%; in series [2] (test concentration 500 μM), 64.4%; in series [2] (test concentration 1000 μM) it was 89.3%. Besides, the “Reduction of MeSH (%)” value was 75.1% in series [3] (setting [5]) and 48.2% in series [3] (setting [6]).
For the compound `CCOC(=O)/C=C/C(=O)OCC=Cc1ccccc1` [Compound 6, Cinnamyl Ethyl Fumarate], the “% reduction of MeSH in the headspace” value stood at 45.8% in series [1] (compound 100 μM) and 85% in series [1] (compound 500 μM).
In the case of `CC/C=C\CCOC(=O)/C=C/C(=O)OCC` [Compound 7, Ethyl (Z)-hex-3-enyl fumarate], the figures for the “% reduction of MeSH in the headspace” value in series [1] (compound 100 μM), in series [1] (compound 200 μM) and in series [1] (compound 500 μM) were 33%, 39.2% and 54.1%, respectively.
On to `CCCCCCOC(=O)/C=C/C(=O)OCCCCCC` [Dihexyl fumarate (A), Dihexyl fumarate, reference compound], for which the “reactivity towards MeSH / ability to bind MeSH (in words)” value in series [1] is recorded as “very low reactivity”. The “% reduction of MeSH in the headspace” value in series [1] (compound 100 μM) was found to be 4.3%; in series [1] (compound 200 μM), 1.9%; in series [1] (compound 500 μM), 10.9%.

The values are drawn from patent US20090047223A1, “Improvements in or Related to Organic Compoounds” (GIVAUDAN SA, priority 2005, published 2009).
